Experiments:
Assay type in all cases: cell-based, human
[1] = test system: WNT pathway in lesional skin from vitiligo patients; assay: Ex vivo culture of lesional vitiligo skin biopsies with WNT pathway activators, RT-qPCR; conditions: 14 days, SKL2001 40 μM; for mRNA level of early melanoblast marker Brn2 / mRNA level of early melanoblast marker PAX3 / relative mRNA expression of LEF / relative mRNA expression of WNT family: CHIR99021 3 μM, LiCl 20 μM; for relative mRNA expression of LEF / relative mRNA expression of WNT family: stimulation every other day, n=9
Procedure: (§1) Vitiligo patients (n=9) were biopsied in lesional skin area. The biopsies were stimulated in ex vivo culture during 14 days with GSK3β inhibitor: CHIR99021 (3 μM) or LiCl (20 μM) or with WNT agonist: SKL2001 (40 μM) every other day. mRNA was extracted and a RT-qPCR was performed to quantify the relative expression of LEF (A) and the pre-melanocytes markers PAX3 (B), Brn2 (C) MITF (D) and DCT (E).
as §1, with “WNT family” for “LEF (A) and the pre-melanocytes markers PAX3 (B), Brn2 (C) MITF (D) and DCT (E).”
For vitiligo skin biopsies, after verification of the absence of melanocytes with Wood's lamp, two or three 6 mm biopsies composed of dermis plus epidermis were taken into lesional skin from vitiligo patients (n=9). The biopsies are rapidly put on transwell chamber of 0.4 μm (Becton Dickinson) and kept on semi liquid culture conditions in “Skin long term culture medium” (Biopredic). The skin was maintained at 37° C. in a wet 5% CO2 atmosphere.
The culture medium supplemented with Forskolin (Sigma Aldrich), LiCl (Sigma Aldrich), CHIR99021 (Calbiochem) or SKL2001 (Calbiochem) was changed […] during 14 days.
mRNA from melanocytes and keratinocytes was extracted with RNeasy kit (Qiagen). The biopsies are cut and disrupted with tissue ruptor (Qiagen) and the mRNA was extracted with RNeasy kit (Qiagen). cDNA were synthesized from 300 ng to 1 μg of mRNA with the Reverse Transcription System (Promega). Relative quantification of gene expression was measured by real time qPCR with Sybr green reagent (Life technology) on Step one system.
In order to induce the differentiation of melanocyte stem cells, they pharmacologically activated the WNT pathway in vitiligo skin cultured ex vivo as shown previously. They used two methods to activate the WNT pathway: a WNT agonist (SKL2001) and two GSK3β inhibitors: lithium chloride (LiCl) and a commercial specific inhibitor (CHIR99021). They biopsied 9 vitiligo subjects (6 mm punch) on diverse body locations ([…], 2 on trunk, 2 on leg, 1 on arm and 1 on axilla) and treated the ex vivo culture model during 14 days with a systemic stimulation every other day with the WNT activators.
They evaluated the activation of WNT pathway by the mRNA level of WNTs (TCF/LEF1 and the melanogenesis pathway by the mRNA level of MITF, DCT, PAX3 and BRn2) within the skin. Treatments with LiCl, CHIR99021 and SKL2001 induce an increase of all WNT and LEF after 14 days of stimulation (FIG. 6A and FIG. 11).

NHM (melanocytes) = assay: Oxidative stress (H2O2) in NHM, qPCR of LEF1 and WNT family; conditions: 24 hours
Procedure: (§2) NHM (A) and NHK (B) and whole skin in ex vivo culture (C) were stimulated 24 hours with 25 to 100 μM of H2O2. After mRNA extraction, a reverse transcription was performed and the relative gene expression of LEF1 was analyzed with qPCR.
(§3) (A) NHM, (B) NHK and (C) whole skin in ex vivo culture were stimulated 24 hours with 25 to 100 μM of H2O2. After mRNA extraction, a reverse transcription was performed and the relative gene expression of WNT family was analyzed with qPCR.
(§4) NHMs and NHKs are obtained from the foreskin of phototype IV children as described previously. Briefly, epidermal cells are obtained by overnight digestion of the skin in a dispase solution (Roche) at 4° C. followed by the digestion of the epidermis in a trypsin/EDTA solution during 20 minutes at 37° C. […]
(§5) mRNA from melanocytes and keratinocytes was extracted with RNeasy kit (Qiagen). […] Relative quantification of gene expression was measured by real time qPCR with Sybr green reagent (Life technology) on Step one system.
(§6) Since the WNT pathway, implicated in melanocytes differentiation, seems to be affected in vitiligo skin, inventors tried to determine the element—known to be involved in vitiligo—responsible for this dysregulation. […] They induced an oxidative stress with H2O2 in melanocytes and keratinocytes and analyzed the expression of LEF and WNT family. […]

[2] = test system: whole skin in ex vivo culture; assay: Oxidative stress (H2O2) in whole skin in ex vivo culture, qPCR of LEF1 and WNT family; conditions: whole skin biopsies ex vivo, 24 hours, 25 to 100 μM H2O2
Procedure: as §2, §3
Skin from abdominoplasty surgery was used to the development of the ex vivo skin culture model. The subcutaneous fat was removed and biopsies of 6 mm were done in the skin composed of dermis and epidermis.
as §5, §6

NHK (keratinocytes) = assay: Oxidative stress (H2O2) in NHK, qPCR of LEF1 and WNT family; conditions: 24 hours
Procedure: as §2, §3, §4, §5, §6

[3] = 25 to 100 μM H2O2, majority of WNT

## Cc1c[nH]c(-c2cnc(NCCNc3ccc(C#N)cn3)nc2-c2ccc(Cl)cc2Cl)n1 [CHIR99021]
[1]
  mRNA level of early melanoblast marker Brn2: up-regulated
  mRNA level of early melanoblast marker PAX3: up-regulated
  relative mRNA expression of LEF: increase
  relative mRNA expression of WNT family: increase

## OO [H2O2]
NHM (melanocytes); 25 to 100 μM H2O2
  expression of LEF: decreased
NHM (melanocytes); [3]
  expression of WNT family: decreased
[2]
  expression of LEF: decrease expression
[2]; most of the WNT family
  expression of WNT family: decrease expression
NHK (keratinocytes); 25 to 100 μM H2O2
  expression of LEF: decreased
NHK (keratinocytes); [3]
  expression of WNT family: decreased

## O=C(NCCCn1ccnc1)c1cc(-c2ccco2)on1 [SKL2001]
[1]
  mRNA level of early melanoblast marker Brn2: up-regulated
  mRNA level of early melanoblast marker PAX3: up-regulated
  mRNA level of MITF: increased
  relative mRNA expression of LEF: increase
  relative mRNA expression of WNT family: increase
